Measured values reported in patent US20240216476A1, “COMBINATION OF BITTER RECEPTOR AGONIST AND GUT-SIGNALING COMPOUND” (AARDVARK THERAPEUTICS, INC., priority 2021, published 2024).
Where two headings read alike, the source gives them in different places. Marks after values point to notes of the source that are not given here.

What was measured:
[1] = 18 weeks, on metformin; saxagliptin 5 mg daily; sitagliptin 100 mg; cited from earlier work
[2] = system: high-fat diet-induced obese (DIO) mice; format: in vivo; details: in words; for high-density lipoprotein (HDL) levels: vs vehicle controls
Protocol: This Example provides the results from an in vivo study of denatonium acetate and sitagliptin in high-fat diet-induced obese (DIO) mice. C57BL/6NTac mice (at least 12 weeks of age) were fed with a high fat diet. All mice were dosed orally by gavage as (a) Vehicle group (N=15) dosed with distilled water BID, (b) DA group (N=15) dosed at 75 mg/kg (denatonium weight) BID; (c) sitagliptin group (N=15) dosed by gavage with 10 mg/kg QD; and (d) DA+ sitagliptin group (N=15) treated with DA at 75 mg/kg (denatonium based weight) BID and sitagliptin at 10 mg/kg by gavage QD. The groups were dosed for 8 weeks followed by a 5-7 day […] period. Body weight and body weight changes were measured three times per week. Serum biomarker levels for blood glucose (after fasting 6-8 hours), blood insulin, percentage of blood HvA1c, HDL, LDL, total triglycerides (TG), total cholesterol (TC) and bile acid were measured twice during the study at day 28 and at the end (day 56) of the study. Cumulative food intake and water consumption for each animal was measured.

[3] = in words; cited from earlier work
[4] = cited from earlier work; for Effect on Body Weight (placebo-adjusted change from baseline) / Effect on HbA1c (placebo-adjusted change from baseline) / Effect on Body Weight (placebo-adjusted change from baseline), percent: QD 24-26 weeks
[5] = system: C57Bl/6J mice fed with high-fat diet; details: sitagliptin 0.004% in diet 12 weeks; vildagliptin 30 mg/kg/day 7 weeks; alogliptin 0.03% (wt/wt) in diet for life span; cited from earlier work
ob/ob mice = details: sitagliptin 0.0018% in diet 12 weeks; alogliptin 42.2 mg/kg/day 28 days; cited from earlier work
[6] = semaglutide 3 mg, sitagliptin 100 mg, saxagliptin 2.5 mg, vildagliptin 50 mg, alogliptin 12.5 mg, linagliptin 5 mg
[7] = semaglutide 7 mg, sitagliptin 200 mg, saxagliptin 5 mg, vildagliptin 100 mg, alogliptin 25 mg
[8] = sitagliptin alone or in combination compared with controls, meta-analysis results

Question: What does the source list for N[C@@H](CC(=O)N1CCn2c(nnc2C(F)(F)F)C1)Cc1cc(F)c(F)cc1F [Sitagliptin, (2R)-4-oxo-4-[3-(trifluoromethyl)-5,6-dihydro[1,2,4]triazolo[4,3-a]pyrazin-7(8H)-yl]-1-(2,4,5-trifluorophenyl)butan-2-amine]?
Answer: reductions in hemoglobin A1c (HbA1c) [1]: −0.26%; high-density lipoprotein (HDL) levels ([2]; FIG. 22A): significantly decreased high-density lipoprotein (HDL) levels; high-density lipoprotein (HDL) levels ([2]; day 56 (FIG. 22B)): significantly decreased high-density lipoprotein (HDL) levels; weight loss ([2]; 56-day study summary): no weight loss effect was seen with longer duration dosing; effect on body weight (relative body weight percentage and relative body weight change) ([2]; DA 75 mg/kg BID, sitagliptin 10 mg/kg QD by gavage, 8 weeks): least effect on body weight; excretion and metabolism [3]: renally excreted with minimal liver metabolism (via CYP3A4 and CYP2C8); Effect on Body Weight (placebo-adjusted change from baseline) [4, 6]: 100 mg: +0.9 kg; Effect on HbA1c (placebo-adjusted change from baseline) [4, 6]: 100 mg: −0.79%; Effect on Body Weight (placebo-adjusted change from baseline), percent ([4]; semaglutide 3 mg, sitagliptin 100 mg, saxagliptin 2.5 mg, vildagliptin 50 mg): (+1.1%); Effect on Body Weight (placebo-adjusted change from baseline) [4, 7]: 200 mg: +1.0 kg; Effect on HbA1c (placebo-adjusted change from baseline) [4, 7]: 200 mg: −0.94%; Effect on Body Weight (placebo-adjusted change from baseline), percent ([4]; semaglutide 7 mg, sitagliptin 200 mg, saxagliptin 5 mg, vildagliptin 100 mg): (+1.2%); HDL-C, weighted mean difference (WMD) [4, 8]: 0.05 mmol/L) ^$$$; serum TG, weighted mean difference [WMD] [4, 8]: [WMD] −0.24 mmol/L; Control-adjusted Percent Change in Body Weight Gain [5]: −45.8%*; Control-adjusted Percent Change in Fasting Blood Glucose [5]: −20.9%*; Control-adjusted Percent Change in Insulin Level [5]: −41.7%; Control-adjusted Percent Change in Fasting Blood Glucose (ob/ob mice): −23.4%*; Control-adjusted Percent Change in Insulin Level (ob/ob mice): +148%*; Control-adjusted Percent Change in TG Level (ob/ob mice): −43.2%*
